Data published in paper PMC4904262 (ACS Medicinal Chemistry Letters, 2016).

Columns and labels:
Conditions in all cases: 1 µM, ATP at Km
AXL = AXL (Homo sapiens, UniProt P30530)
CAMKIV = CAMKIV (Homo sapiens, UniProt Q16566)
CDK2/CYCLINA = CDK2/CYCLINA (Homo sapiens, UniProt P24941)
CDK2/CYCLINE = CDK2/CYCLINE (Homo sapiens, UniProt P24941)
CDK5/P25 = CDK5/P25 (Homo sapiens, UniProt Q00535)
CHK1 = CHK1 (Homo sapiens, UniProt O14757)
CHK2 = CHK2 (Homo sapiens, UniProt O96017)
DDR2 = DDR2 (Homo sapiens, UniProt Q16832)
DMPK = DMPK (Homo sapiens, UniProt Q09013)
EPHA3 = EPHA3 (Homo sapiens, UniProt P29320)
EPHA7 = EPHA7 (Homo sapiens, UniProt Q15375)
EPHB4 = EPHB4 (Homo sapiens, UniProt P54760)
FGR = FGR (Homo sapiens, UniProt P09769)
FLT3 = FLT3 (Homo sapiens, UniProt P36888)
FYN = FYN (Homo sapiens, UniProt P06241)
GSK3BETA = GSK3BETA (Homo sapiens, UniProt P49841)
HIPK2 = HIPK2 (Homo sapiens, UniProt Q9H2X6)
IR = IR (Homo sapiens, UniProt P06213)
IRAK1 = IRAK1 (Homo sapiens, UniProt P51617)
MET = MET (Homo sapiens, UniProt P08581)
MINK = MINK (Homo sapiens, UniProt Q8N4C8)
MRCKALPHA = MRCKALPHA (Homo sapiens, UniProt Q5VT25)
MSK2 = MSK2 (Homo sapiens, UniProt O75676)
MST2 = MST2 (Homo sapiens, UniProt Q13188)
NEK7 = NEK7 (Homo sapiens, UniProt Q8TDX7)
PKBALPHA = PKBALPHA (Homo sapiens, UniProt P31749)
PKBBETA = PKBBETA (Homo sapiens, UniProt P31751)
PKCETA = PKCETA (Homo sapiens, UniProt P24723)
PKG1BETA = PKG1BETA (Homo sapiens, UniProt Q13976)
RON = RON (Homo sapiens, UniProt Q04912)
ROS = ROS (Homo sapiens, UniProt P08922)
RSK2 = RSK2 (Homo sapiens, UniProt P51812)
SGK3 = SGK3 (Homo sapiens, UniProt Q96BR1)
SIK = SIK (Homo sapiens, UniProt P57059)
SRC = SRC (Homo sapiens, UniProt P12931)
TIE2 = TIE2 (Homo sapiens, UniProt Q02763)
CK1GAMMA1 = CK1GAMMA1 (Homo sapiens, UniProt Q9HCP0)
CK1GAMMA2 = CK1GAMMA2 (Homo sapiens, UniProt P78368)
DCAMKL2 = DCAMKL2 (Homo sapiens, UniProt Q8N568)
FAK = FAK (Homo sapiens, UniProt Q05397)
RSK4 = RSK4 (Homo sapiens, UniProt Q9UK32)
TAO3 = TAO3 (Homo sapiens, UniProt Q9H2K8)
MTOR = MTOR (Homo sapiens, UniProt P42345)
MTOR/FKBP12 = MTOR/FKBP12 (Homo sapiens, UniProt P42345)
AURKB = AURKB (Homo sapiens, UniProt Q96GD4)
AURKB, sequence (Q96GD4 whole entry): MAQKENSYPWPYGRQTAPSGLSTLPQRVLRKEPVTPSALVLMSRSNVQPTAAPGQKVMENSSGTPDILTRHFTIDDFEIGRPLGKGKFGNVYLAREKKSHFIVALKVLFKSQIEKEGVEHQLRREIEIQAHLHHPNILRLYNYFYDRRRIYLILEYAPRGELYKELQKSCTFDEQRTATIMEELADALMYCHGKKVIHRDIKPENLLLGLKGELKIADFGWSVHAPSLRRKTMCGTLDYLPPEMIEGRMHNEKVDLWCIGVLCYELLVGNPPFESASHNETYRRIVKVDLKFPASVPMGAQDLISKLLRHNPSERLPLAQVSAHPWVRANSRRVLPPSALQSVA

SGK3, sequence (Q96BR1 whole entry): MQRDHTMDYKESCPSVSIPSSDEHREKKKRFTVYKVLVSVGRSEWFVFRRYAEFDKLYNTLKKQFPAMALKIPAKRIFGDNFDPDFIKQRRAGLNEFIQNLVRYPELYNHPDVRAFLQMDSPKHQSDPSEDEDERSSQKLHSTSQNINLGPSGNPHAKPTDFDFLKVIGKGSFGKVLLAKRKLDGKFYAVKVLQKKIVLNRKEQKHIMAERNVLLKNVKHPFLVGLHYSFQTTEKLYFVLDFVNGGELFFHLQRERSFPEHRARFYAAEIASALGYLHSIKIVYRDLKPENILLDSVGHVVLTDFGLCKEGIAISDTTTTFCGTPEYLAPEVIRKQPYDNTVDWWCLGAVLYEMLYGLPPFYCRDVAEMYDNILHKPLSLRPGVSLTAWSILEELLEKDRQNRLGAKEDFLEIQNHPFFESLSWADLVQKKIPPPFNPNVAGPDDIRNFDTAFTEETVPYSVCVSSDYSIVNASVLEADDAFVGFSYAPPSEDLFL
MET, sequence (P08581 25-1390): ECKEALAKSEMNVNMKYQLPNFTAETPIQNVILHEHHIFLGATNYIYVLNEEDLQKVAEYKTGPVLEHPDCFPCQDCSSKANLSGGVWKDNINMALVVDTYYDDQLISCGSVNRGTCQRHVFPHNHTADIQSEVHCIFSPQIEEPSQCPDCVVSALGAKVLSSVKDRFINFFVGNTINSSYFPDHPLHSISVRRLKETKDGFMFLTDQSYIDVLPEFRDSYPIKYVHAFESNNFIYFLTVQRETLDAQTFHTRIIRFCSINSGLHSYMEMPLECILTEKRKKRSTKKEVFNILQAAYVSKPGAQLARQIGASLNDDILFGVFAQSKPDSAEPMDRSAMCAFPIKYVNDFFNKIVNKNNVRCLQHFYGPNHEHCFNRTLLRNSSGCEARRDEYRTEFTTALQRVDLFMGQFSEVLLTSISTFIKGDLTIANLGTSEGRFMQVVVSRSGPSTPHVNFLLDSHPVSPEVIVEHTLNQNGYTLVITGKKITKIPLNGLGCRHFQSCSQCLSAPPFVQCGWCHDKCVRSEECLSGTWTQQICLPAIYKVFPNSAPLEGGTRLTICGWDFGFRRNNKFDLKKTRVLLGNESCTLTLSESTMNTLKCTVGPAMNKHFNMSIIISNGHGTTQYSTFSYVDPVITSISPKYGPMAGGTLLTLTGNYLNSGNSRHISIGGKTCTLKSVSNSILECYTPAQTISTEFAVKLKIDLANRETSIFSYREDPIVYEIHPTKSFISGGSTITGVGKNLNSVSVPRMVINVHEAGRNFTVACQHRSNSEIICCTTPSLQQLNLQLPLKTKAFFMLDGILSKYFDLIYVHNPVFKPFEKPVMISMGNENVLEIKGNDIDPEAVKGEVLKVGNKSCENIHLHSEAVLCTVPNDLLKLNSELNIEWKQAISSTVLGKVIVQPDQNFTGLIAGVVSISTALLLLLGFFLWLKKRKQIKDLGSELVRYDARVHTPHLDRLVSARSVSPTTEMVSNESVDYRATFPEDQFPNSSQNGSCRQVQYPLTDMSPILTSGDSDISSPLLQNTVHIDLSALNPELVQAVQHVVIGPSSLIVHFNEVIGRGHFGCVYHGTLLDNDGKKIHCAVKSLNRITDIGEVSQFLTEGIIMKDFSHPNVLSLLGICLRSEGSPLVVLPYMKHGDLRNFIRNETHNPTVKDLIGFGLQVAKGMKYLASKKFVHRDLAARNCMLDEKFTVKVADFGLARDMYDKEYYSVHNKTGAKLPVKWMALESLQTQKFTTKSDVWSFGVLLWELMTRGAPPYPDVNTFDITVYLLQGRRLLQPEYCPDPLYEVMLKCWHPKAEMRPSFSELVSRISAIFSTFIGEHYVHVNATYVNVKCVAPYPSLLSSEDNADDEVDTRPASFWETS
TIE2, sequence (Q02763 23-1124): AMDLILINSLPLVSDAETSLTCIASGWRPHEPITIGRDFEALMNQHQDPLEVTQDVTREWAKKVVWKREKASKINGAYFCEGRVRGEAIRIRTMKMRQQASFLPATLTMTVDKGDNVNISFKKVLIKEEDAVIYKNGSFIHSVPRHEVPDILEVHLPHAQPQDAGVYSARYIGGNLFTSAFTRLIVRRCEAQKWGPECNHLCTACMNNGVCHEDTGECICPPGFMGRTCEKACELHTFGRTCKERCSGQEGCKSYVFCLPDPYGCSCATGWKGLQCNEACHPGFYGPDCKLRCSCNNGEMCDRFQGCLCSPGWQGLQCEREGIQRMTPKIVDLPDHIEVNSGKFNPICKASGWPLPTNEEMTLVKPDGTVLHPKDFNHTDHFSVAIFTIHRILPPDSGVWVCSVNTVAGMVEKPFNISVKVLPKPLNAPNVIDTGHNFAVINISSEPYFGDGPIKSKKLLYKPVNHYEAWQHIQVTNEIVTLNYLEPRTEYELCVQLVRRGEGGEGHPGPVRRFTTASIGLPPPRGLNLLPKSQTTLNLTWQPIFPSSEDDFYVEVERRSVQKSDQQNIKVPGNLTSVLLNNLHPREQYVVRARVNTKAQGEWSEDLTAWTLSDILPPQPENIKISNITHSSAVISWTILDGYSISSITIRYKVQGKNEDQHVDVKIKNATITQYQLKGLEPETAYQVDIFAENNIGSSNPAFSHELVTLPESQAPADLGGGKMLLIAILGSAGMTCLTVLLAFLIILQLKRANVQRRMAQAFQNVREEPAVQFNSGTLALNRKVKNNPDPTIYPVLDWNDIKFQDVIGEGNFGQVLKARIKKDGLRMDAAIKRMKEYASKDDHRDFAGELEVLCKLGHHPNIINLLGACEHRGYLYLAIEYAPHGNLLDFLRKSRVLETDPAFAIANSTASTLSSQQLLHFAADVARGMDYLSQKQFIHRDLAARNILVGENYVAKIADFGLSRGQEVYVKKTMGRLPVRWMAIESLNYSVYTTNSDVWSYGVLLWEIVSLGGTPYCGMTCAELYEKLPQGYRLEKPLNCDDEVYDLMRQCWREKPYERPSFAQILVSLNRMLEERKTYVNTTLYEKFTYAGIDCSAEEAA
IRAK1, sequence (P51617 whole entry): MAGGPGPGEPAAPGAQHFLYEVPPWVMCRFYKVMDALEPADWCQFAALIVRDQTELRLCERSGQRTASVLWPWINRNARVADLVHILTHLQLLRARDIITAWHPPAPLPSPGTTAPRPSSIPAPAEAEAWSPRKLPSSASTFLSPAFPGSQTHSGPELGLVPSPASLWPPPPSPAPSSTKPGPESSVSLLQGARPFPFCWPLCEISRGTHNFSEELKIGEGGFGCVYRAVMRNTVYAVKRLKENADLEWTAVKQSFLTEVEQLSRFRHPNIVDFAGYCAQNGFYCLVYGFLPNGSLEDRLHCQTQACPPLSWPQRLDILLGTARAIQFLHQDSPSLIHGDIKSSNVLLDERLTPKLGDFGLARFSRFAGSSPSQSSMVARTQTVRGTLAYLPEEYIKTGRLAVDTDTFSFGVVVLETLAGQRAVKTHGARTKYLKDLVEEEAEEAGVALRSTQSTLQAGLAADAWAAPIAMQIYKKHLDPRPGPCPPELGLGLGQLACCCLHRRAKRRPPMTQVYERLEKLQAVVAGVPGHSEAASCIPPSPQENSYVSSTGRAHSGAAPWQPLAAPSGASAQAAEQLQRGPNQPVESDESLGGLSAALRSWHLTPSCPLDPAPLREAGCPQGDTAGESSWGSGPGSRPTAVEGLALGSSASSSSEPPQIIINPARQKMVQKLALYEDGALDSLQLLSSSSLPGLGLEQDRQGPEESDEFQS
FAK, sequence (Q05397 whole entry): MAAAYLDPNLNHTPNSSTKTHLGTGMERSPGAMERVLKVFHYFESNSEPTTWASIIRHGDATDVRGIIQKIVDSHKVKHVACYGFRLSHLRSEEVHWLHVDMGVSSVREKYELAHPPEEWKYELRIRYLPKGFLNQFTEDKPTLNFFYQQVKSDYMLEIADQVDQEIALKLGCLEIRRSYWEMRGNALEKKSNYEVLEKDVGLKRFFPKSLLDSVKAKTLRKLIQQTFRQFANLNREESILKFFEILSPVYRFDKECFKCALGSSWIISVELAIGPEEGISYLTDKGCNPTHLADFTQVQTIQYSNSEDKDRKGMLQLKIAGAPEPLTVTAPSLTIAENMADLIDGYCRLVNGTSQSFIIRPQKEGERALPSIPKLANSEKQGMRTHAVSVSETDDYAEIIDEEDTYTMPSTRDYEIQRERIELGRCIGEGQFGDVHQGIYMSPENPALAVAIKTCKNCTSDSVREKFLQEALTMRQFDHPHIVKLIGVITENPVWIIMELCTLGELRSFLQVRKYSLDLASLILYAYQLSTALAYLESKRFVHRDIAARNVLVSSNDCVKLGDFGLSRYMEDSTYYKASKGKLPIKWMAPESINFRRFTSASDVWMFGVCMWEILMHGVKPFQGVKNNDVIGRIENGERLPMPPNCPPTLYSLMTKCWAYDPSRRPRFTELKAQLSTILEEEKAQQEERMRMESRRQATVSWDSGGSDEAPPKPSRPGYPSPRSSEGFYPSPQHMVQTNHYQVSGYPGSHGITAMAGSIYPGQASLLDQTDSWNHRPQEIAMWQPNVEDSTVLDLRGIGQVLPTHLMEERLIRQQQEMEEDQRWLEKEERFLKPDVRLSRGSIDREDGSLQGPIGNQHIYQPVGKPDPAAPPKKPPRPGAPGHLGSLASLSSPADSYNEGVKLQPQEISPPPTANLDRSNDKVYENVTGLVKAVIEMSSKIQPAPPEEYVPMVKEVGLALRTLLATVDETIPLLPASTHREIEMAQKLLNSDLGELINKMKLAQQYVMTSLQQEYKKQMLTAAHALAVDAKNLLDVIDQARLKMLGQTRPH

COC1CN(C(=O)c2ccc3c(N)ncc(-c4ccc(-c5cnn(C)c5)cc4)c3c2)C1 [Compound 59]
percentage effect (AXL): -12% | percentage effect (CAMKIV): 23% | percentage effect (CDK2/CYCLINA): -5% | percentage effect (CDK2/CYCLINE): 1% | percentage effect (CDK5/P25): 11% | percentage effect (CHK1): -9% | percentage effect (CHK2): -10% | percentage effect (DDR2): 24% | percentage effect (DMPK): -11% | percentage effect (EPHA3): 10% | percentage effect (EPHA7): 1% | percentage effect (EPHB4): 6% | percentage effect (FGR): 7% | percentage effect (FLT3): 16% | percentage effect (FYN): 8% | percentage effect (GSK3BETA): -9% | percentage effect (HIPK2): 16% | percentage effect (IR): -15% | percentage effect (IRAK1): 14% | percentage effect (MET): -19% | percentage effect (MINK): -13% | percentage effect (MRCKALPHA): 0% | percentage effect (MSK2): -12% | percentage effect (MST2): -14% | percentage effect (NEK7): -26% | percentage effect (PKBALPHA): 4% | percentage effect (PKBBETA): -24% | percentage effect (PKCETA): -4% | percentage effect (PKG1BETA): 1% | percentage effect (RON): -11% | percentage effect (ROS): -4% | percentage effect (RSK2): 0% | percentage effect (SGK3): 9% | percentage effect (SIK): -5% | percentage effect (SRC): -6% | percentage effect (TIE2): -18% | percentage effect (CK1GAMMA1): -8% | percentage effect (CK1GAMMA2): -9% | percentage effect (DCAMKL2): 0% | percentage effect (FAK): -18% | percentage effect (RSK4): 13% | percentage effect (TAO3): -6% | percentage effect (MTOR): -5% | percentage effect (MTOR/FKBP12): 4% | percentage effect (AURKB): 14%

COC1CN(C(=O)c2ccc3c(N)ncc(-c4ccc(-c5cnn(C)c5)cc4)c3n2)C1 [Compound 51]
percentage effect (AXL): 27% | percentage effect (CAMKIV): -17% | percentage effect (CDK2/CYCLINA): 5% | percentage effect (CDK2/CYCLINE): -1% | percentage effect (CDK5/P25): 3% | percentage effect (CHK1): -8% | percentage effect (CHK2): -1% | percentage effect (DDR2): 6% | percentage effect (DMPK): 7% | percentage effect (EPHA3): 10% | percentage effect (EPHA7): -4% | percentage effect (EPHB4): 8% | percentage effect (FGR): 19% | percentage effect (FLT3): 0% | percentage effect (FYN): 1% | percentage effect (GSK3BETA): 1% | percentage effect (HIPK2): -8% | percentage effect (IR): 3% | percentage effect (IRAK1): 8% | percentage effect (MET): 22% | percentage effect (MINK): -11% | percentage effect (MRCKALPHA): 2% | percentage effect (MSK2): 7% | percentage effect (MST2): -5% | percentage effect (NEK7): -6% | percentage effect (PKBALPHA): -11% | percentage effect (PKBBETA): 13% | percentage effect (PKCETA): 5% | percentage effect (PKG1BETA): 1% | percentage effect (RON): 15% | percentage effect (ROS): 14% | percentage effect (RSK2): 6% | percentage effect (SGK3): -13% | percentage effect (SIK): -3% | percentage effect (SRC): 7% | percentage effect (TIE2): -6% | percentage effect (CK1GAMMA1): -8% | percentage effect (CK1GAMMA2): -24% | percentage effect (DCAMKL2): 0% | percentage effect (FAK): 3% | percentage effect (RSK4): 9% | percentage effect (TAO3): -16% | percentage effect (MTOR): -12% | percentage effect (MTOR/FKBP12): -4% | percentage effect (AURKB): 0%
